Active and inactive are the calls of the source. The calls are words filed in the database; no cut-off is given here.
What was measured:
[1] = system: P19; assay: Neuritogenic activity in mouse P19 derived neurons assessed as increase in neurite number at 1 nM after 18 hrs by phase contrast microscopic method relative to control; format: functional
[2] = system: P19; assay: Neuritogenic activity in mouse P19 derived neurons assessed as increase in neurite length at 1 nM after 18 hrs by phase contrast microscopic method relative to control; format: functional
[3] = biological target: T1, Amyloid-beta precursor protein (Homo sapiens, UniProt P05067); assay: Inhibition of amyloid beta (1 to 42) aggregation (unknown origin)
[4] = Cytotoxicity against mouse P19 derived neurons assessed as cell viability at 10000 nM after 18 hrs by XTT assay relative to control; format: toxicity; conditions: read-out: Activity
[5] = Antioxidant activity assessed as inhibition of DPPH radical at 100 uM incubated for 30 mins under dark condition relative to control; format: functional
[6] = biological target: T2, Beta-secretase 1 (Homo sapiens, UniProt P56817); assay: Inhibition of BACE1 (unknown origin) at 25 uM using beta-secretase substrate 4 after 30 mins by fluorescence spectrophotometric method relative to control
[7] = Cytotoxicity against mouse P19 derived neurons assessed as cell viability at 1000 nM after 18 hrs by XTT assay relative to control; format: toxicity; conditions: read-out: Activity
[8] = Cytotoxicity against mouse P19 derived neurons assessed as cell viability at 10 nM after 18 hrs by XTT assay relative to control; format: toxicity; conditions: read-out: Activity
[9] = Cytotoxicity against mouse P19 derived neurons assessed as cell viability at 1 nM after 18 hrs by XTT assay relative to control; format: toxicity; conditions: read-out: Activity
[10] = Cytotoxicity against mouse P19 derived neurons assessed as cell viability at 100 nM after 18 hrs by XTT assay relative to control; format: toxicity; conditions: read-out: Activity
[11] = biological target: T1, Amyloid-beta precursor protein; assay: Inhibition of human amyloid beta (1 to 42) aggregation at 100 uM incubated for 48 hrs under dark condition by ThT fluorescence assay relative to control
[12] = system: SH-SY5Y; assay: Neuroprotective activity against aggregated amyloid beta-induced toxicity in human SH-SY5Y cells assessed as increase in cell viability at 1 to 10 uM preincubated for 2 hrs followed by aggregated amyloid beta addition measured after 24 hrs by MTT assay; format: functional, cell-based
[13] = biological target: T2, Beta-secretase 1; assay: Inhibition of BACE1 (unknown origin) using beta-secretase substrate 4 after 30 mins by fluorescence spectrophotometric method
[14] = biological target: T1, Amyloid-beta precursor protein; assay: Inhibition of human amyloid beta (1 to 42) aggregation incubated for 48 hrs under dark condition by ThT fluorescence assay

T1 sequence (P05067 whole entry): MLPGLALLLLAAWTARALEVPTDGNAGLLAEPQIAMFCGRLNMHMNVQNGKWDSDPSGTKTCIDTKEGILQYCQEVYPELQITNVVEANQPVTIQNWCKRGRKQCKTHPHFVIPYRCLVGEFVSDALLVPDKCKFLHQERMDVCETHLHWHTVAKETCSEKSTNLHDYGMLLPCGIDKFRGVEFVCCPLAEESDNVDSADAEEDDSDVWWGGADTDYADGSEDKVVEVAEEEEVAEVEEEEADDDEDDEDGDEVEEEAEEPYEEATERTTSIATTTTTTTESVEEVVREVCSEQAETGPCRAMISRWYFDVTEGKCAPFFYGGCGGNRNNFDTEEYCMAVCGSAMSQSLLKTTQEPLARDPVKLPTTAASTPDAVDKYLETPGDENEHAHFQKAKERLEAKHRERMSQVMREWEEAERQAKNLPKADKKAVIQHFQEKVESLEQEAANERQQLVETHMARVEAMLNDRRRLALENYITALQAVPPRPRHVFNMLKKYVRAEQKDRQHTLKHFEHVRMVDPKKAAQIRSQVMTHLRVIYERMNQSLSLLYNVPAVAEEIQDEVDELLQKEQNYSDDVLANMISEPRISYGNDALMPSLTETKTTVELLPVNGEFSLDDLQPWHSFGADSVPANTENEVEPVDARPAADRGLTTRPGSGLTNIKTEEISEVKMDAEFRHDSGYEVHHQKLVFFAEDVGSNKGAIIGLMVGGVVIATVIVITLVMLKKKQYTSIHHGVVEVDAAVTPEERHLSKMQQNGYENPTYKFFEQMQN
T2 sequence (P56817 whole entry): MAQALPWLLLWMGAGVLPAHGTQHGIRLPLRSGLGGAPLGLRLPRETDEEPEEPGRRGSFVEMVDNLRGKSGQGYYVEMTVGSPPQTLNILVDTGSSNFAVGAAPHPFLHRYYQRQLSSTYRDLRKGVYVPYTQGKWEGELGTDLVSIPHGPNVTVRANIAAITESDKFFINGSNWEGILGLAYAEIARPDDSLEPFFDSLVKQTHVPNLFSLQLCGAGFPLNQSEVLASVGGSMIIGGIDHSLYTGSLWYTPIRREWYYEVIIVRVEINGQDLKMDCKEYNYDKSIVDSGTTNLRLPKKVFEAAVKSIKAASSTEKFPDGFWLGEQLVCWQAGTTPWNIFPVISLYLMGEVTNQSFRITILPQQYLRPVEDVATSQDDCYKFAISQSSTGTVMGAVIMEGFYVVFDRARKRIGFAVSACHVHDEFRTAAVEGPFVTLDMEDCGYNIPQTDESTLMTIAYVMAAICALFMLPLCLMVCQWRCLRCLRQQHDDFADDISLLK

Structure (SMILES)	Activity [1] [%]	Activity [2] [%]	IC50 [3] [µM]	viability at 18 h, 10 µM [4] [%]	inhibition [5] [%]	inhibition [6] [%]	viability at 18 h, 1 µM [7] [%]	viability at 18 h, 0.01 µM [8] [%]	viability at 18 h, 0.001 µM [9] [%]	viability at 18 h, 0.1 µM [10] [%]	inhibition [11] [%]	Activity [12]	IC50 [13] [µM]	IC50 [14] [µM]
O=c1c(O)c(-c2ccc(O)c(O)c2)oc2cc(O)cc(O)c12 [QUERCETIN]	40.43	58.37	7.94	–	–	–	–	–	–	–	–	–	–	–
N[C@@H](Cc1c[nH]c2ccccc12)Cn1cc(CNC(=O)/C=C/c2ccc(O)c(O)c2)nn1	131.74	62.21	–	140	50.6	40	129	130	133	135	81.5	–	–	–
COC1=C2C[C@@H](C)C[C@H](OC)[C@H](O)[C@@H](C)/C=C(\C)[C@H](OC(N)=O)[C@@H](OC)/C=C\C=C(/C)C(=O)NC(=CC1=O)C2=O [GELDANAMYCIN]	55.22	59.14	–	–	–	–	–	–	–	–	–	–	–	–
N[C@@H](Cc1c[nH]c2ccccc12)Cn1cc(-c2ccc(Cl)c(Cl)c2)nn1	118.7	84.13	–	93.8	0	61.5	108	128	139	116	67.6	–	–	–
OC[C@@H]1Cc2c([nH]c3ccccc23)CN1Cc1cn(C[C@@H]2Cc3c([nH]c4ccccc34)CN2)nn1	136.09	93.25	–	124	8.46	67.5	131	131	131	129	80.2	Active	16.7	66.4
O=C(/C=C/c1ccc(O)c(O)c1)NCc1cn(C[C@@H]2Cc3c([nH]c4ccccc34)CN2)nn1	123.04	57.54	–	140	92.3	21.7	120	139	130	125	84.1	–	> 50	–

— ChEMBL document CHEMBL3875215, “Neuritogenic activity of bi-functional bis-tryptoline triazole” (Bioorg Med Chem, 2017)
